Where a SMILES comes first, the peptide text is derived from it. [ ]: non-standard residue; d: D form.
Test system: aortic rings pre-contracted with phenylephrine
Parameters: species or system Wistar Kyoto rats
Description: Ten-week-old male Wistar Kyoto rats were anesthetized with ketamine (35 mg/kg) and xylazine (7 mg/kg) administered intraperitoneally. The aortas were removed, dissected from the extravascular connective tissue, and cut into 3 mm long rings in fresh Krebs buffer pH 7.4 (KRB, 120 mM NaCl, 25 mM NaHCO3, 5 mM glucose, 4.8 mM KCI, 2.5 mM CaCl2, 1.2 mM MgSO4, […], and 1.2 mM KH2PO4) freshly bubbled with 5% CO2 in air. They were then mounted on a wire myograph (DMT 620M) and placed in an organ bath with KRB, pH 7.4 at 37°C with constant bubbling and equilibrated for 30 min at a tension of 1.5 g. The vasodilator response of ^DH^DF^DP^DH^DI^DY^DV^DR^DD^LD^LR^LV^LY^LI^LH^LP (SEQ ID NO: 1), which corresponds to a fusion of the angiotensin-(1-9) retro-enantio peptide (D-amino acids, N-terminal to C-terminal direction: ^DH^DF^DP^DH^DI^DY^DV^DR^DD (SEQ ID NO: 2)) and the angiotensin-(1-7) peptide (L-amino acids, N-terminal to C-terminal direction: ^LD^LR^LV^LY^LI^LH^LP (SEQ ID NO: 3) were evaluated in dose-response curves [10^-18 to 10^-4 M] to these molecules in baths with aortic rings pre-contracted with phenylephrine 10^-7 M. Carbacol (10^-6-10^-4 M) was used as a relaxation control. The peptides were added in cumulative concentrations to the baths when the vasoconstrictor response to phenylephrine reached its maximum level. […]

## CC[C@@H](C)[C@@H](NC(=O)[C@@H](Cc1c[nH]cn1)NC(=O)[C@H]1CCCN1C(=O)[C@@H](Cc1ccccc1)NC(=O)[C@H](N)Cc1c[nH]cn1)C(=O)N[C@H](Cc1ccc(O)cc1)C(=O)N[C@@H](C(=O)N[C@H](CCCNC(=N)N)C(=O)N[C@H](CC(=O)O)C(=O)N[C@@H](CC(=O)O)C(=O)N[C@@H](CCCNC(=N)N)C(=O)N[C@H](C(=O)N[C@@H](Cc1ccc(O)cc1)C(=O)N[C@H](C(=O)N[C@@H](Cc1c[nH]cn1)C(=O)N1CCC[C@H]1C(=O)O)[C@@H](C)CC)C(C)C)C(C)C [HP16, ^DH^DF^DP^DH^DI^DY^DV^DR^DD^LD^LR^LV^LY^LI^LH^LP]
  EC50: 0.00509 nM

## CC[C@@H](C)[C@@H](NC(=O)[C@@H](Cc1c[nH]cn1)NC(=O)[C@H]1CCCN1C(=O)[C@@H](Cc1ccccc1)NC(=O)[C@H](N)Cc1c[nH]cn1)C(=O)N[C@H](Cc1ccc(O)cc1)C(=O)N[C@@H](C(=O)N[C@H](CCCNC(=N)N)C(=O)N[C@H](CC(=O)O)C(=O)O)C(C)C [RI-Ang-(1-9), ^DH^DF^DP^DH^DI^DY^DV^DR^DD] (H-[dH][dF][dP][dH][dI][dY][dV][dR][dD]-OH)
  EC50: 0.0767 nM
